In patent US20050176829A1, “Methods for treating hypothyroidism” (priority 2003, published 2005):
“Also recorded” adds a separate entry of the source. Where two headings read alike, the source gives them in different places. Marks after values point to notes of the source that are not given here.

Key:
[1] = clinical; settings: human, in vivo, metabolic clearance rate (MCR) of T3
[2] = test system: alpha-myosin heavy chain (alpha-MHC)
Protocol: FIG. 3A-3B. […] A: Representative agarose gel showing alpha-MHC hnRNA PCR products stained with ethidium bromide and visualized with ultraviolet light. PCR fragment size is 335 basepairs (bp). B: Quantification of hnRNA alpha-MHC 335 bp fragment from left ventricular RNA shown as a percentage of euthyroid (normal) values for three rats.
FIG. 4. […] Three 200 gram rats per each group.
FIG. 6. […] Hearts were removed after 3-4 days (24 hours after the last injection), and RNA was extracted from the left ventricles. Transcription was measured by quantitation of α-MHC hnRNA. The content of α-MHC hnRNA measured in these hearts is expressed as the percent of euthyroid (100%).
Methods and Materials—Animal Studies. Studies were conducted using adult Sprague-Dawley rats weighing between 180 and 225 g. Thyroidectomies were performed by surgical removal of the thyroid gland. […] After animals were sacrificed, the left ventricle of the heart was immediately frozen in liquid nitrogen and then treated for RNA extraction as previously described (Balkman et al. Endocrinology 130: 1002-6, 1992). Reverse transcription polymerase chain reaction (RT-PCR) assay of total left ventricular RNA for alpha-myosin heavy chain (alpha-MHC) heteronuclear (hn) RNA was carried out as previously described (Danzi and Klein, Thyroid 12(6): 467-72, 2002; Danzi et al. Am J Physiol Heart Circ Physiol. 284(6) :H2255-62, 2003). Results are expressed as means ±SE.
Expression of the cardiac- specific gene alpha-myosin heavy chain (alpha-MHC) is a sensitive indicator of normal cardiac function (Ojamaa et al. CVR&R 23: 20-6, 2002; Danzi et al. Am J Physiol Heart Circ Physiol. 284(6) :H2255-62, 2003; Danzi and Klein, Thyroid 12(6): 467-72, 2002; Ojamma and Klein, Endocrinology 132: 1002-6, 1993).

[3] = cited from earlier work
[4] = hypothyroid rats, T3 infusion 7.0 μg/d, 1 week; cited from earlier work
[5] = rats (Goslings et al.); cited from earlier work
[6] = Serum T3, free T3 and T4 levels in hypothyroid (thyroidectomized) rats after T3 infusion or bolus injection (radioimmunoassay); type: in vivo, rat
From the text: FIG. 2. […] Three rats per each group.
Methods and Materials—Animal Studies. […] Results are expressed as means ±SE.

[7] = Heart rate after daily bolus administration of T3 in rats; type: in vivo, rat; settings: for T3max−Conmax: max HR T3 minus max HR saline control
[8] = Serum half-life of T3 after bolus injection in thyroidectomized rats; type: in vivo; settings: Sprague-Dawley, rat, intravenous, 1 ug
[9] = daily bolus T3 0.8 μg/200 gram rat, day 1
[10] = daily bolus T3 0.8 μg/200 gram rat, day 2
[11] = daily bolus T3 0.8 μg/200 gram rat, day 3
[12] = daily bolus T3 0.8 μg/200 gram rat, day 4
[13] = daily bolus T3 0.8 μg/200 gram rat, day 5
[14] = day 6, no dosing of T3 on this day
[15] = day 7, no dosing of T3 on this day

For `N[C@@H](Cc1cc(I)c(Oc2ccc(O)c(I)c2)c(I)c1)C(=O)O` [T3, triiodothyronine], the clearance [1] was roughly 0.217 mL/min/kg, the “alpha-MHC expression versus normal” value ([2]; hypothyroid rats, T3 infusion 0.25 and 0.5 μg/day) was “normalization of alpha-MHC expression was observed” and the “alpha-myosin HC expression versus normal” value ([2]; hypothyroid rats, bolus daily injections 0.25-0.8 μg T3/day) was “not by bolus daily injections”. The “alpha-myosin HC expression versus normal” value ([2]; hypothyroid rats, constant infusion 0.25-0.8 μg T3/day, 3-4 days) was “restored to normal”, the alpha-MHC cardiac transcription ([2]; thyroidectomized rats, bolus injection 1 μg T3 each day for 2 days) was 60 % of normal and the “alpha-MHC expression (hnRNA)” value ([2]; thyroidectomized rats, single bolus injection of 1 μg T3, time course) was “transient increase in alpha-MHC expression”. The “metabolic clearance rate (MCR) of T3” value ([3]; humans (Chopra and Sabatino)) was 24 L/day/70 kg, the “metabolic clearance rate (MCR) of T3” value ([3]; hypothyroid humans (Bianchi et al.)) was 11.4 L/day/m^2 and the “Heart weight/Body weight” value [4] was 3.64 ± 0.07^a. The “metabolic clearance rate (MCR) of T3” value [5] was 2.93 mL/min/kg, the concentration at 3 days ([6]; Sprague-Dawley, rat, serum, subcutaneous, 0.25 μg/d) was 0.44 ± 0.03 ng/mL and the concentration at 3 days ([6]; Sprague-Dawley, rat, serum, subcutaneous, 0.8 μg/d) was 0.78 ± 0.06 ng/mL. The concentration at 1 week ([6]; Sprague-Dawley, rat, serum, subcutaneous, 1 μg/d) was 1.32 ± 0.14 ng/mL, the “serum T3 levels versus normal” value ([6]; hypothyroid rats, 0.8 μg daily bolus injection, 24 hours after last injection) was “not effective in restoring serum T3 levels to normal” and the “serum T3 levels versus normal” value ([6]; hypothyroid rats, 0.8 μg/day by subcutaneous miniosmotic pump infusion, blood sampled at 72) was “restored to normal; also recorded: restores serum T3 levels to about normal”. For the same compound, the “serum T3 levels versus normal” value ([6]; hypothyroid rats, T3 infusion 0.25 μg/day and 0.5 μg/day) was “elevates serum T3 above levels observed in thyroidectomized animals, but does not fully restore serum T3 levels to normal”, the “serum T3 levels versus normal” value ([6]; hypothyroid rats, T3 infusion at doses above 0.8 μg/day) was “elevated serum T3 levels above normal” and the “serum T3 levels versus normal” value ([6]; thyroidectomized rats, single bolus injection 1 μg T3/day for 7 days) was “failed to restore serum T3 levels to normal”. The “Δ HR” value ([7]; AVG of days 1-7) was 84, the “min HR” value ([7]; AVG of days 1-7, P < 0.001 vs control) was 307^+ and the “max HR” value ([7]; AVG of days 1-7, P < 0.002 vs control) was 390^. For the same compound, the “maximum heart rate versus normal” value ([7]; bolus daily injections of T3 at 0.8 μg) was “increasing maximum heart rate above normal”, the “max HR” value [7, 9] was 345 and the “min HR” value [7, 9] was 270. For the same compound, the “Δ HR” value [7, 9] was 75, the “max HR” value [7, 10] was 370 and the “min HR” value [7, 10] was 315. For the same compound, the “Δ HR” value [7, 10] was 55, the “max HR” value [7, 11] was 385** and the “min HR” value [7, 11] was 320. For the same compound, the “Δ HR” value [7, 11] was 65, the “max HR” value [7, 12] was 410** and the “min HR” value [7, 12] was 320. For the same compound, the “Δ HR” value [7, 12] was 90, the “max HR” value [7, 13] was 415** and the “min HR” value [7, 13] was 300. The “Δ HR” value [7, 13] was 115, the “max HR” value [7, 14] was 425* and the “min HR” value [7, 14] was 300*. The “Δ HR” value [7, 14] was 125, the “max HR” value [7, 15] was 380* and the “min HR” value [7, 15] was 325*. The “Δ HR” value [7, 15] was 65, the “T3max−Conmax” value ([7]; AVG) was 43 and the “T3max−Conmax” value ([7]; day 1) was 0. The “T3max−Conmax” value ([7]; day 2) was 10, the “T3max−Conmax” value ([7]; day 3) was 45 and the “T3max−Conmax” value ([7]; day 4) was 70. For the same compound, the “T3max−Conmax” value ([7]; day 5) was 65, the “T3max−Conmax” value ([7]; day 6 (no T3 dosing)) was 70 and the “T3max−Conmax” value ([7]; day 7 (no T3 dosing)) was 40. The half-life [8] was 7 h.
